Common to all, as to test: NCI anticancer screen, dose series, 48 h
The subject of test [1] is SNB-19 CNS.
Test [2] deals with SK-MEL-28 melanoma.
Test [3] concerns NCI-H460 lung.
The test system of test [4] is SNB-75 CNS.
The subject of test [5] is M14 melanoma.
The subject of test [6] is SK-MEL-2 melanoma.
Test [7] has as its system HL-60(TB) leukemia.
The test system of test [8] is RXF 393 renal.
Test [9] has as its system EKVX NSCLC.
For test [10], the system named is UACC-62 melanoma.

SMILES strings stand for the structures. “And” between values parts separate entries of the source, which are not always exact repeats. Equal entries are not always repeated.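 How tested: cells in 96-well plates exposed to compound for 48 hours at five concentrations. At the GI50, growth is halved. TGI is the concentration that stops growth completely.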

As for `O=C(O)[C@@H](NS(=O)(=O)c1ccc([N+](=O)[O-])cc1)c1ccccc1`, the TGI in [1], in [2], in test [3], in test [4], in test [5] and in test [6] was greater than 100000 nM each time. For the same compound, the TGI in [7], in [8], in test [9] and in test [10] was greater than 100000 nM throughout.
Turning to `CCOC(=O)NC1CC2CCC1(OC)C=C2C` (stereo not drawn), the TGI in [1], in test [2], in test [3], in test [4], in test [5] and in [6] was greater than 100000 nM each time. Besides, the TGI in test [7], in test [8], in test [9] and in [10] was greater than 100000 nM throughout.
With `CN1CCN(CC(=O)N2c3cccc4cccc(c34)N(C(=O)CN3CCN(C)CC3)C2c2cn(-c3ccccc3)nc2-c2cccc([N+](=O)[O-])c2)CC1`, the GI50 in test [1] is 2960 nM; in [2], 1810 nM; in [3] it was 2230 nM; in test [4], 1320 nM; in test [5], 1750 nM; in [6] it was 1950 nM. The GI50 in test [7] was 1890 nM; in test [8], 1580 nM; in [9], 2840 nM; in test [10] it was 1770 nM. For the same compound, the TGI in [1] is 11300 nM; in test [2] it was 3360 nM; in test [3], 4980 nM; in test [4], 2710 nM; in test [5], 3340 nM; in [6] it was 4040 nM. The TGI came to 3750 nM in [7], 3090 nM in [8], 11500 nM in [9] and 3380 nM in test [10].
As to `O=C(NCCCCCCNC(=O)OCc1ccc2c(Cl)cc(Cl)c(O)c2n1)OCc1ccc2c(Cl)cc(Cl)c(O)c2n1`, the GI50 is 1490 nM in test [1]; 1190 nM in test [2]; 1230 nM in test [3]; 567 nM in [4]; 893 nM in test [5]; 1450 nM in test [6]. The GI50 in test [7] was 771 nM; in test [8] it was 478 nM; in test [9] it was 1510 nM; in [10] it was 1060 nM. In addition, the TGI in test [1] was determined as 2910 nM; in [2], 2420 nM; in test [3] it was 3120 nM; in test [4], 2080 nM; in test [5] it was 2320 nM; in test [6], 2990 nM. Also, the TGI in [7] worked out at 4290 nM; in test [8], 1570 nM; in test [9], 3080 nM; in test [10] it was 2280 nM.
For `CCN(CC)CC[n+]1cc2cc(OC)c(OC)cc2c2ccc3cc4c(cc3c21)OCO4`, the GI50 in [1] is 452 nM; in test [2], 1480 nM; in test [3] it was 288 nM; in test [4] it was 640 nM; in [5], 654 nM; in test [6], 1640 nM. Also, the GI50 is 1420 nM in test [7], 783 nM in test [8], 967 nM in [9] and 1220 nM in test [10]. The TGI in test [1] was 1770 nM; in test [2] it was 2930 nM; in [3] it was 1040 nM; in test [4], 2560 nM; in test [5], 2310 nM; in test [6], 4590 nM. Further, the TGI in [7] worked out at 4690 nM; in [8], 2450 nM; in [9], 4040 nM; in test [10], 4890 nM.
On to `CCCCCCNCCCNc1c2ccccc2nc2cccc([N+](=O)[O-])c12`, for which the GI50 in [1] was 17 nM; in [2], 53.4 nM; in [4] it was 65 nM; in test [7], 21.6 nM; in test [9], 185 nM; in test [10] it was 18.1 nM. In addition, the TGI in test [2] was 323 nM and 375 nM; in [3], 21.8 nM; in test [4], 181 nM and 237 nM; in test [5], 24.7 nM and 20.5 nM; in test [6], 33.1 nM and 23.1 nM; in test [8], 31.2 nM. For the same compound, the TGI in test [9] is 120 nM and 812 nM; in test [10] it was 131 nM and 61.8 nM.
Regarding `CNC(=O)CN1CCC(Oc2cc3c(Nc4cccc(Cl)c4F)ncnc3cc2OC)CC1`, the GI50 in test [1] is 31500 nM and > 8290 nM; in [2], 19200 nM and > 7550 nM; in [3], 28100 nM and > 6730 nM; in test [4] it was 2090 nM and 1840 nM; in test [5], 18000 nM and > 8270 nM; in test [6], 16700 nM and > 7550 nM. The GI50 in test [7] is 26900 nM and > 4950 nM; in test [8], 7350 nM and 2370 nM; in [9], < 14.7 nM and 15.4 nM; in [10] it was 16300 nM and > 10000 nM. Moreover, the TGI in test [1] was greater than 100000 nM; in test [2], 47300 nM and > 10000 nM; in test [3], greater than 100000 nM; in test [4] it was 10800 nM and > 10000 nM; in test [5], 34100 nM and > 10000 nM; in test [6], 34100 nM and > 10000 nM. For the same compound, the TGI in test [7] was greater than 65400 nM; in test [8], 27300 nM and > 6920 nM; in test [10], 32600 nM and > 10000 nM.
`Nc1c2ccccc2nc2ccccc12` (tested in a mixture with another compound): the GI50 was 2640 nM in test [1]; 1990 nM in [2]; 2120 nM in [3]; 3180 nM in test [4]; 1870 nM in [5]; 2160 nM in test [6]. The GI50 in [7] was 3240 nM; in test [8] it was 1280 nM; in test [9] it was 2010 nM; in test [10] it was 1620 nM. In addition, the TGI in test [1] is 15700 nM; in [2] it was 3860 nM; in test [3], 8990 nM; in test [4] it was 8440 nM; in test [5] it was 3920 nM; in [6], 4230 nM. For the same compound, the TGI was 8040 nM in [7], 3270 nM in test [8], 7650 nM in test [9] and 3740 nM in test [10].
`Cc1c(CC/C(=N\Nc2ccc([N+](=O)[O-])cc2[N+](=O)[O-])c2ccccc2)c2ccccc2n1C`: the TGI in test [1], in test [2], in test [3], in test [4], in test [5] and in test [6] was greater than 100000 nM in each case. For the same compound, the TGI in [7] is greater than 81200 nM; in [8], greater than 83600 nM; in test [9] it was greater than 100000 nM; in test [10] it was greater than 100000 nM.

The record behind these values is PubChem BioAssay (NCI).
